Measurements reported in US20230052601A1, “HALO ACTIVE AROMATIC SULFONAMIDE PHARMACEUTICAL COMPOSITIONS FOR INTERNAL USE” (priority 2021, published 2023).

System: P. aeruginosa
Experiment: Flame burn injury with subcutaneous P. aeruginosa infection in mice, survival (Example 3)
Type: in vivo
Conditions: burned mice infected with P. aeruginosa; 1 mg then six doses of 0.5 mg subcutaneously; observed seven days; five treated animals; controls 4 of 11 survived; Fisher exact 0.0337
Description: Adult mice (n=16) received a ˜20% flame burn injury, followed by resuscitation with two doses of 0.5 mL of saline and […] of tramadol for analgesia. After 5 minutes, they were infected with P. aeruginosa subcutaneously under the burn wound. 20 minutes post injury, five of the animals received 1 mg of BENZ subcutaneously in 0.25 ml saline, followed by six doses of 0.5 mg of BENZ subcutaneously also in 0.25 ml saline, approximately 8-12 hours apart. The animals were observed several times daily for seven days.

SMILES: O=C(O)c1ccc(S(=O)(=O)NCl)cc1 [BENZ, N-chloro-4-carboxybenzenesulfonamide]
- survival of treated animals: all five survived
